The structures appear in SMILES notation.

For orientation: IC50 means the point on the concentration scale where inhibition reaches its midpoint. Low readings indicate inhibition by little substance, high ones a need for much substance.

The target of the experiment is T1, h-11βHSD1 (Homo sapiens, UniProt P28845).
T1 construct: made in house
Nature of the experiment: 11βHSD1 enzyme assay (SPA). Format: biochemical. The following applies: yeast extract with h-11βHSD1, 120 nM 3H-cortisone, 4 mM β-NADPH, 60 min at 30° C. The method, then: Pharmacological Methods 11βHSD1 Enzyme Assay Materials
^3H-cortisone and anti-rabbit Ig coated scintillation proximity assay (SPA) beads were purchased from Amersham Pharmacia Biotech, β-NADPH was from Sigma and rabbit anti-cortisol antibodies were from Fitzgerald. An extract of yeast transformed with h-11βHSD1 (Hult et al., FEBS Lett, 441, 25 (1998)) was used as the source of enzyme. The test compounds were dissolved in DMSO (10 mM). All dilutions were performed in a buffer containing 50 mM TRIS-HCl (Sigma Chemical Co), 4 mM EDTA (Sigma Chemical Co), 0.1% BSA (Sigma Chemical Co), 0.01% Tween-20 (Sigma Chemical Co) and 0.005% bacitracin (Novo Nordisk A/S), pH=7.4. Optiplate 96 wells plates were supplied by Packard. The amount of ^3H-cortisol bound to the SPA beads was measured on TopCount NXT, Packard.
h-11βHSD1, 120 nM ^3H-cortisone, 4 mM β-NADPH, antibody (1:200), serial dilutions of test compound and SPA particles (2 mg/well) were added to the wells. The reaction was initiated by mixing the different components and was allowed to proceed under shaking for 60 min at 30° C. […] Data was analysed using GraphPad Prism software.

T1 sequence (P28845 whole entry): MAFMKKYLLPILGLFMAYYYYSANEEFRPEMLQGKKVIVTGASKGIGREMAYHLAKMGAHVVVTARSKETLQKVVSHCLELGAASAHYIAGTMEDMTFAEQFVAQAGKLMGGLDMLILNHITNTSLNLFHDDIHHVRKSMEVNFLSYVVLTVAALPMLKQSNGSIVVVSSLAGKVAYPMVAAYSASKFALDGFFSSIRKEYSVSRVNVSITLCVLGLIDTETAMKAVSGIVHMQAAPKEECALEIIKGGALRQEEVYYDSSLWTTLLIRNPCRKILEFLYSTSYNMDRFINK

On to `Cc1cc(-c2ccccc2)n2nc(C(=O)N(C)C3CCCCC3)cc2n1` [Example 4], for which it took 340 nM to reach half-maximal inhibition (IC50). For `Cc1cc(C(F)(F)F)n2nc(C(=O)N3CCCCC3)cc2n1` [Example 3, (5-methyl-7-trifluoromethyl-pyrazolo[1,5-a]pyrimidin-2-yl)-(piperidin-1-yl)methanone] the value was 4700 nM.
